Experimental data taken from US10980239B2, “Decontamination solution and its use for denaturation, modification, degradation, solubilisation and removal of proteins, nucleic acid molecules and microorganisms” (MULTIBIND BIOTEC GMBH, priority 2005, dated 2021).

Columns and labels:
Format in all cases: cell-based
Bacillus subtilis = test: Test for the anti-microbial action, colony count after plating; conditions: 10^6 cells in 50 μl mixed 1:1 with solution, 2 minutes incubation, plated, 1-3 days at 37° C.
Description: (§1) Freshly grown cultures of the listed microorganisms were adjusted to a cell number of 10^6 in a 50 μl volume and mixed in a ratio of 1:1 with 50 μl of water, 70% ethanol or the three component system (100 mM ascorbic acid, 10 mM FeCl3 and 0.5% SDS). After an incubation time of 2 minutes the 100 μl samples containing the microorganisms were plated onto the respective growth media. After an incubation period of 1-3 days at 28° C. (Saccharomyces cerevisiae and Candida parapsilosis) or 37° C. (Escherichia coli and Bacillus subtilis) the number of grown colonies was determined.

Escherichia coli = test: as above; conditions: 10^6 cells in 50 μl mixed 1:1 with solution, 2 minutes incubation, plated, 1-3 days at 37° C.
Description: as §1

Saccharomyces cerevisiae = test: as above; conditions: 10^6 cells in 50 μl mixed 1:1 with solution, 2 minutes incubation, plated, 1-3 days at 28° C.
Description: as §1

[1] = system: listed microorganisms (Escherichia coli, Bacillus subtilis, Saccharomyces cerevisiae, Candida parapsilosis); test: Test for the anti-microbial action, summary for all listed microorganisms; conditions: 10^6 cells mixed 1:1 with solution, 2 minutes incubation, plated, 1-3 days
Description: as §1

[2] = system: recombinant Escherichia coli strain with an extra-chromosomal plasmid (YEp351); test: Degradation of genomic DNA and extra-chromosomal genetic material inside microorganisms (FIG. 8, gel electrophoresis); conditions: 5 μl E. coli suspension, lysozyme 5 minutes, then 5 μl solution for 5 minutes
Description: A recombinant Escherichia coli strain with an extra-chromosomal plasmid (YEp351) was grown over night in LB, amp medium. Aliquots of 5 μl from the E. coli suspension were treated with 5 μl lysozyme solution (1 mg/ml) for 5 minutes and subsequently incubated with 5 μl of the listed solutions (1-5) for additional 5 minutes. After addition of bromphenol blue the samples were loaded into the gel slots and separated by electrophoresis of the DNA molecules.
(M: Marker 1 Kb Ladder; C: Control with H2O; 1: 70% Ethanol; 2: 0.5% Bacillozid™; 3: 0.5% SDS; 4: 0.5% Na-Azide+0.5% SDS; 5: 100 mM vitamin C+10 mM FeCl3+0.5% SDS; C: Control: 5 μl sterile H2O)

Row | Compound | number of grown colonies (Bacillus subtilis) | number of grown colonies (Escherichia coli) | number of grown colonies (Saccharomyces cerevisiae) | living cell colonies, all listed microorganisms [1] | effect on cells and DNA molecules seen in the gel [2]
1 | CCO [70% ethanol, ethanol] | 0 | 0 | 0 | did not show any living cell colony | precipitation of the lysate and the DNA
2 | CCCCCCCCCCCCOS(=O)(=O)[O-].[Na+] [sample 3, Sodiumdodecylsulfate] | – | – | – | – | lysis of the cells is observed
